Calls of active or inactive are those of the source. The calls are words filed in the database; no cut-off is given here.

For the first test, the system named is Mus musculus. Briefly: Analgesic activity in Kunming mouse model of acetic-acid-induced writhing assessed as inhibition of writhing numbers at 1 mg/kg measured for 30 mins relative to control. The test is classed as functional, organism-based. In general terms: An intraperitoneal irritant provokes the stretching counted in writhing tests.
Take `C=C1C2=C(C=C[C@@]34C[C@@H](CC[C@@H]13)[C@](C)(O)C4)C(C)(C)[C@@H](O)C2`: the outcome was Active.

`C=C1[C@@H]2CC[C@H]3C(C)=C[C@]2(C[C@@H](O)[C@@]2(O)[C@H]1C[C@H](O)C2(C)C)[C@@H]3OC(C)=O`: the result was Active.

For a further test, the system named is Mus musculus. Briefly: Analgesic activity in Kunming mouse model of acetic-acid-induced writhing assessed as inhibition of writhing numbers at 0.04 mg/kg measured for 30 mins relative to control. The test is classed as functional, organism-based.
In the case of `CN1CC[C@]23c4c5ccc(O)c4O[C@H]2[C@@H](O)C=C[C@H]3[C@H]1C5`, the result was Active.

The next test deals with Mus musculus. Briefly: Analgesic activity in Kunming mouse model of acetic-acid-induced writhing assessed as inhibition of writhing numbers at 5 mg/kg measured for 30 mins relative to control. The test is classed as functional.
`C=C1[C@H]2C[C@H](O)C(C)(C)[C@@]2(O)[C@H](O)C[C@@]23C[C@@](O)(CC[C@@H]12)[C@](C)(O)C3`: the outcome was Active.

Take `C=C1[C@H]2C[C@H](O)C(C)(C)[C@@]2(O)[C@H](O)C[C@@]23C[C@@H](CC[C@@H]12)[C@](C)(O)C3`: the outcome was Active.

`C=C1[C@H]2C[C@@H](O)C(C)(C)[C@]2(O)CC[C@@]23C[C@@H](CC[C@@H]12)[C@](C)(O)C3`: the Activity turned out to be 64.1%.

`CC1=C2CC[C@]3(O)C[C@@]2(C[C@@H](O)[C@@]2(O)[C@H]1C[C@H](O)C2(C)C)C[C@@]3(C)O`: the Activity was found to be 52.3%.

For `C=C1[C@@H]2CC[C@@H]3C[C@@]2(C[C@@H](O)[C@@]2(O)[C@H]1C[C@H](O)C2(C)C)C[C@]3(O)CO`, the Activity was 53.7%.

With `CC1=C2CC[C@]3(O)C[C@@]2(C[C@@H](O)[C@@]2(O)[C@H]1[C@@H](O)[C@H](O)C2(C)C)C[C@@]3(C)O`, the outcome was Active.

For `C=C1[C@@H]2CC[C@@H]3C[C@@]2(C[C@@H](O)[C@@]2(O)[C@H]1C[C@H](O)C2(C)C)C[C@@]3(C)O`, the result was Active.

Consider `C=C1[C@@H]2CC[C@]3(O)C[C@@]2(C[C@@H](O)[C@@]2(O)[C@H]1C[C@H](O)C2(C)C)C[C@@]3(C)O`, for which the outcome was Active.

In the case of `C=C1[C@@H]2CC[C@@H]3C[C@@]2(CC[C@@]2(O)[C@H]1C[C@H](O)C2(C)C)C[C@]3(O)CO`, the result was Active.

In the case of `CC1=C2C[C@H](O)C(C)(C)[C@@H]2C(=O)C[C@@]23C[C@@H](CC=C12)[C@](C)(O)C3`, the result was Active.

As for `C=C1[C@@H]2CC[C@@H]3C[C@@]2(CC[C@@]2(O)[C@H]1C[C@H](O)C2(C)C)C[C@@]3(C)O`, the result was Active.

Consider `C=C1[C@@H]2CC[C@]3(O)C[C@@]2(C[C@@H](O)[C@@]2(O)[C@@H]1[C@H](O)[C@H](O)C2(C)C)C[C@@]3(C)O`, for which the outcome was Active.

With `C=C1[C@@H]2CC[C@@H]3C[C@@]2(C[C@@H](O)[C@@]2(O)[C@H]1C[C@@H](O)C2(C)C)C[C@@]3(C)O`, the outcome was Active.

Regarding `C=C1[C@H]2C[C@H](O)C(C)(C)[C@]2(O)CC[C@@]23C[C@@H](CC[C@@H]12)[C@](C)(O)C3`, the outcome was Active.

`CC1(C)C2=CC[C@@]34C[C@@H](CC[C@H]3[C@@](C)(O)[C@H]2C[C@@H]1O)[C@](C)(O)C4`: the outcome was Active.

With `C=C1[C@H]2C[C@H](O)C(C)(C)[C@@]2(O)[C@H](O)C[C@]23C=C(C)[C@H](CC[C@@H]12)C3`, the result was Active.

With `C=C1[C@@H]2[C@@H](O)[C@H](O)C(C)(C)[C@@]2(O)[C@H](O)C[C@@]23C[C@@](O)(CC[C@@H]12)[C@](C)(O)C3`, the result was Active.

In the case of `C=C1[C@@H]2CC[C@@H]3[C@@H](O)[C@@]2(C[C@@H](O)[C@@]2(O)[C@H]1C[C@H](O)C2(C)C)C[C@@]3(C)O`, the outcome was Active.

Take `C=C1[C@H]2C[C@H](O)[C@@](C)(CO)[C@]2(O)CC[C@@]23C[C@@H](CC[C@@H]12)[C@](C)(O)C3`: the Activity worked out at 58.8%.

On to `CO[C@H]1O[C@]23[C@H](O)C[C@@]45C[C@@](O)(CC[C@H]4[C@H]1[C@@H]2C[C@H](O)C3(C)C)[C@](C)(O)C5`, for which the result was Active.

The test system of a further test is Mus musculus. Briefly: Analgesic activity in Kunming mouse model of acetic-acid-induced writhing assessed as inhibition of writhing numbers at 0.04 to 0.2 mg/kg measured for 30 mins relative to control. The test is classed as functional, organism-based.
As for `C=C1[C@@H]2CC[C@@H]3[C@@H](OC(C)=O)[C@@]2(C[C@@H](O)[C@@]2(O)[C@H]1C[C@H](O)C2(C)C)C[C@@]3(C)O`, the result was Active.

Consider `CC(=O)O[C@@H]1[C@H]2CC[C@H]3[C@@](C)(O)[C@@H]4C[C@H](O)C(C)(C)[C@@]4(O)[C@H](O)C[C@@]13C[C@@]2(C)O`, for which the result was Active.

For the next test, the system named is Mus musculus. Description: Analgesic activity in Kunming mouse model of acetic-acid-induced writhing assessed as inhibition of writhing numbers at 0.2 mg/kg measured for 30 mins relative to control. The test is classed as functional, organism-based.
As for `C=C1[C@@H]2CC[C@@H]3[C@@H](OC(C)=O)[C@@]2(C[C@@H](O)[C@@]2(O)[C@H]1C[C@H](O)C2(C)C)C[C@@]3(C)O`, the result was Active.

`CC(=O)O[C@@H]1[C@H]2CC[C@H]3[C@@](C)(O)[C@@H]4C[C@H](O)C(C)(C)[C@@]4(O)[C@H](O)C[C@@]13C[C@@]2(C)O`: the outcome was Active.

Values taken from ChEMBL document CHEMBL4339245, “Grayanane Diterpenoids from the Leaves of Rhododendron auriculatum and Their Analgesic Activities” (2019).
